{"source": "paper PMC6980506", "about": "“Comparative pharmacokinetics and pharmacodynamics of the advanced Retinol-Binding Protein 4 antagonist in dog and cynomolgus monkey” (PLoS ONE, 2020)", "key": {"plasma RBP4 [1]": {"test_system": "plasma RBP4", "assay": "Plasma RBP4 lowering (ELISA) in cynomolgus monkey", "assay_type": "in vivo", "method": "(§1) Pharmacokinetic studies were conducted in male beagle dogs and male cynomolgus monkeys at SRI International, Menlo Park, CA. General procedures for animal care and housing were in accordance with the National Research Council (NRC) Guide for the Care and Use of Laboratory Animals (1996) and the Animal Welfare Standards incorporated in 9 CFR Part 3, 1991 and complied with guidelines set forth by the ARVO Animal Statement for the Use of Animals in Ophthalmic and Vision Research. During the course of the PK experiments, cynomolgus monkeys were individually housed in stainless steel primary enclosures in an AAALAC-accredited facility. Animals were fed a commercial monkey chow, and supplemental food was provided (fresh fruits, vegetables, seeds, and nuts). Reverse osmosis-purified drinking water was available at all times. Cynomolgus monkeys were maintained on a 12:12 hour light:dark cycle at the 64–84°F temperature and 30–70% humidity. Monkeys had access to enrichment opportunities (grooming devices, foraging devices, activity panels and mirrors) and were provided auditory stimuli and human interaction enrichment throughout the study. Blood samples were collected by venipuncture of a peripheral vein. Animals were acclimated to the squeeze back mechanism in their home cage by repeated, short periods of restraint during general husbandry procedures for at least 2 weeks prior to dosing. Animal were not removed from their cages for collection, and no anesthesia/analgesic agents were used for blood collection. […] For PK experiments, beagle dogs were individually housed in enclosed run (≥ 4 ft x 6 ft). Dogs were exposed to their daily ration of food, Harlan Teklad 2025C Certified Global 25% Protein Dog Diet. Water was provided from the public water supply (municipal tap water) ad libitum. Dogs were maintained on a 12:12 hour light:dark cycle at the 72–73°F temperature and 40–71% humidity. Every effort was made to minimize, if not eliminate, pain and suffering in all animals in this study. No restraining devices were used in blood collecting procedures. Dogs were gentle hand-held to restrain by trained technicians with the dogs foreleg extended for sample collection of blood from cephalic vein. Animals were awake during blood sample collection with no anesthesia/analgesic agents used, and positive reinforcement by the technician was provided following collection. […] All dogs were released back to the colony after the study was completed. Male beagle dogs and male cynomolgus monkey received a single i.v. dose of a test compound at 0.5 mg kg^−1 (dog) and 1 mg kg^−1 (monkey) or a single p.o. dose of a test compound of at 2 mg kg^−1 (dog) and 5 mg kg^−1 (monkey). The number of animals that was used in PK experiments is 3 per study group. Intravenous administration vehicle was 3% DMA/45% PEG300/12% ethanol/40% sterile water; p.o. vehicle was 2% Tween 80 in 0.9% saline. Blood was collected from dogs and monkeys at pre-dose and at 5, 15 and 30 min, and 1, 2, 4, 6, 8, 12, 24, 36 and 48 h post-dose in the i.v. arms and at 15 and 30 min, and 1, 2, 4, 6, 8, 12, 24, 36 and 48 h post-dose in the p.o. arm. […] Following protein extraction with acetonitrile, compound concentrations in plasma were measured by LC-MS/MS. The plasma drug level data were analyzed using WinNonlin software package; Model 201 (for i.v. bolus administration);was used for the analysis of i.v. data, and Model 200 (for extravascular administration) was used for the analysis of the p.o. data. […]"}, "[2]": {"assay": "Metabolic stability in human liver microsomes", "assay_type": "in vitro ADME", "settings": "both sexes, pH 7.4, 1 mg/mL, read-out: Microsomal Stability (% Remaining at 30 min)", "method": "All measurements were done in duplicate. Pooled mixed gender human donor microsomes, male beagle dog microsomes and male cynomolgus monkey were obtained from BioIVT (Baltimore, MD). […] A mixture containing 50 mM potassium phosphate buffer pH 7.4 and 1 mg/mL liver microsomes was pre-warmed for 10 min at 37°C in a shaking water bath, followed by the addition of test compound. Final DMSO concentration in the reaction mix was 0.1%. […] The final volume of the reaction mixture was 800 μL, containing 1 mg/mL liver microsomes, and 1 μM test compound. Aliquots (100 μL) of reaction mixtures were removed from the incubation plate at pre-defined timepoints and mixed with 150 μL of ice-cold acetonitrile, incubated on ice for 15 min, and samples were centrifuged (3,600 rpm, 10 min, 4°C) to precipitate protein. The supernatants were diluted 1:1 (v/v) with water containing the internal standard and subjected to the LC/MS analysis."}, "serum RBP4": {"test_system": "serum RBP4", "design": "method as in PMID 29871924", "settings": "mice; cited from earlier work"}, "[3]": {"assay": "Plasma protein binding by equilibrium dialysis, dog plasma", "assay_type": "in vitro ADME", "settings": "pH 7.4, average and standard deviation, read-out: %PPB, plasma protein binding (converted)", "method": "In vitro ADME tests were conducted at AMRI, Albany, NY."}, "[4]": {"design": "method as in PMID 26181715", "settings": "rat liver microsomes; cited from earlier work"}, "plasma RBP4 [5]": {"test_system": "plasma RBP4", "assay": "Plasma RBP4 lowering (ELISA) in beagle dog", "assay_type": "in vivo", "method": "as §1"}}, "data": [{"smiles": "Cc1cc(C(=O)O)nc(N2C[C@H]3C[C@@H](c4ccccc4C(F)(F)F)C[C@H]3C2)n1", "note": "[BPN-14136]", "values": [{"measurement": "plasma RBP4 reduction", "setting": "plasma RBP4 [1]; single 1 mg kg^−1 i.v. dose", "value": 84, "unit": "%"}, {"measurement": "RBP4 reduction", "setting": "plasma RBP4 [1]; single 5 mg kg^−1 oral dose, 24 h", "value": 97, "unit": "%"}, {"measurement": "RBP4 reduction", "setting": "plasma RBP4 [1]; single 5 mg kg^−1 oral dose, 36 h", "value": 94, "unit": "%"}, {"measurement": "RBP4 reduction", "setting": "plasma RBP4 [1]; single 5 mg kg^−1 oral dose, 48 h", "value": 91, "unit": "%"}, {"measurement": "maximum decrease in plasma RBP4", "setting": "plasma RBP4 [1]; single 5 mg kg^−1 oral dose, at 12 hours after dosing", "value": 99, "unit": "%"}, {"measurement": "remaining at 0.5 h, 1 μM", "setting": "[2]", "value": 94, "unit": "%"}, {"measurement": "serum RBP4 lowering", "setting": "serum RBP4", "value": 90, "unit": "%"}, {"measurement": "fraction unbound at 4 h, 1 μM", "setting": "[3]", "value": 0.003}, {"measurement": "stability in liver microsomes, % remaining at 30 min", "setting": "[4]", "value": "> 90", "unit": "%"}, {"measurement": "plasma RBP4 lowering", "setting": "plasma RBP4 [5]; single 0.5 mg kg^−1 i.v. dose", "value": 50, "unit": "%"}, {"measurement": "reduction of RBP4", "setting": "plasma RBP4 [5]; single 2 mg kg^−1 oral dose, 24 h", "value": 53, "unit": "%"}, {"measurement": "reduction of RBP4", "setting": "plasma RBP4 [5]; single 2 mg kg^−1 oral dose, 36 h", "value": 42, "unit": "%"}, {"measurement": "reduction of RBP4", "setting": "plasma RBP4 [5]; single 2 mg kg^−1 oral dose, 48 h", "value": 39, "unit": "%"}, {"measurement": "maximal plasma RBP4 reduction", "setting": "plasma RBP4 [5]; single 2 mg kg^−1 oral dose, at 8 hours post-dosing", "value": 60, "unit": "%"}]}]}
